Patent US6989390B2, “Amonafide salts” (priority 2002, dated 2006)

Key:
[1] = Daily body weight and general health monitoring during the hollow fiber study; type: in vivo; conditions: mice, monitored daily for 6 days, i.p. dosing
Description: Individual mouse body weights were recorded daily and animals were monitored daily for general health for 6 days.

[2] = Minimum amount of water/ethanol (1.5/4 v/v) required to dissolve the crude salt at boil (recrystallization); type: physicochemical
Text: For comparative purposes, between and among organic salts prepared in this manner and for the purposes of subsequent Example 3, Table 3, crude reaction products were recrystalized from water/ethanol (1.5/4 v/v per gram of salt) using the minimum amount of solvent to effect dissolution at boil.
In the case of succinic acid, the organic acid was dispensed as a half-equivalent in order to generate mitonafide hemisuccinate. […] Crude product that was isolated from the hydrogenation reaction mixture was analyzed for purity by high pressure liquid chromatography (HPLC) according to the conditions described in Table 1 above. The crude product was recrystallized from water/ethanol (1.5/4 v/v) using the minimum amount of solvent required to dissolve the crude product at boil, which is shown in the last column of Table 3 for each salt. The recrystallized product was then analyzed for purity by HPLC.
The purities of the crude salts were assessed by HPLC according to the conditions described in Table 1 above. The crude salts were then recrystallized from the minimum amount of water/ethanol (1.5/4 v/v) using the minimum amount of solvent required to dissolve the crude product at boil, which is shown in the last column of Table 3 for each salt. The resulting purified salts were again assessed for purity.
The hydrochloride and methanesulfonic acid salts of amonafide were prepared according to U.S. Pat. No. 5,420,137. Exemplary procedures are as follows: 3 g of crude amonafide free base, obtained as described in the previous two paragraphs, above, were dissolved under reflux in 60 ml of virtually anhydrous ethanol. Subsequently 1 ml of 35% (1 equivalent, estimated) strength hydrochloric acid was added dropwise while shaking vigorously. After cooling, the resulting crystals were filtered off and washed with 10 ml of anhydrous ethanol. The methanesulfonic acid salt was obtained using the same procedure, but replacing hydrochloric acid with 0.8 ml of methanesulfonic acid. The purity was assessed by HPLC using the conditions described in Table 1. The isolated products were then recrystallized from water/ethanol (1.5/4 v/v) using the minimum amounts of solvent required to dissolve the crude product at boil, which are shown for each salt in Table 3. The resulting purified salts were again assessed for purity.
The hydrochloride salt of amonafide was obtained by the method of Zee-Chang et al., U.S. Pat. No. 4,614,820. Exemplary conditions are as follows: a mixture of the hydrochloride salt of N-(dimethylaminoethyl)-3-nitro-1,8-naphthalimide and 10% palladium-on-charcoal in water was hydrogenated at room temperature under 40 lbs/in^2 of hydrogen for one hour. […] To the mixture was added 3 ml of concentrated hydrochloric acid. It was then filtered and the filtrate was evaporated to dryness under reduced pressure. The residue was triturated with 30 ml of absolute ethanol and filtered. The resulting solid was then washed with ether and dried. The purity was assessed by HPLC using the conditions described in Table 1. The crude product was then recrystallized from water/ethanol (1.5/4 v/v) using the minimum amount of solvent (40 mL/g) required to dissolve the crude product at boil. The resulting purified salts were again assessed for purity.

[3] = system: H23 (Lung); assay: Hollow Fiber in vivo anti-cancer assay; design: species or system mice
Description: (§1) The in vivo activity was tested using the Hollow Fiber methodology developed by the National Cancer Institute: Developmental Therapeutics Branch for use in their antineoplastic agent screening program. Specifically, the anti-cancer activity of amonafide L-malate was tested by the following protocol.
(§2) Polyvinylidene fluoride (PVDF) hollow fibers were used. The fibers were individually flushed and filled with 70% ethanol and incubated in 70% ethanol at room temperature for a minimum of 96 hour. Following three washes with deionized water, the fibers were filled with and placed into a pan of deionized water for sterilization by autoclaving. Then the fibers were stored in water at 4° C. until used.
(§3) Mice were grouped into 4 groups, two control groups with 6 mice per group and 2 experimental groups with 3 mice per group.
(§4) Anesthesia was induced in mice by ketamine/acepromazine/xylazine injected intraperitoneally (i.p.) For the intraperitoneal (i.p.) implants, a small incision was made through the skin and musculature of the dorsal abdominal wall, the fiber samples were inserted into the peritoneal cavity in a craniocaudal direction and the incision was closed with a skin staple. For subcutaneous (s.c.) implants, a small skin incision was made at the nape of the neck to allow insertion of an 11 gauge tumor implant trocar. The trocar, containing the hollow fiber samples, was inserted caudally through the subcutaneous tissues and the fibers were deposited during withdrawal of the trocar. The skin incision was closed with a skin staple. Each mouse was host of 6 samples, representing 3 tumor cells lines each of which was cultured in the 2 physiologic compartments (i.p. and s.c.).
(§5) On the day following the last drug injection, the animals were sacrificed and the hollow fibers extracted. The hollow fibers were then subjected to the stable endpoint MTT assay as described in Example 5. The optical density of each sample is determined spectrophotometrically at 540 nm and the mean of each treatment group is calculated. The percent net growth for each cell line in each treatment group is calculated as described in Example 5 and compared to the percent net growth in the vehicle treated controls (Group B) using the formula below to determine the percent growth inhibition:
(§6) % growth inhibition=(Net GrowthControl−Net GrowthTreated)/Net GrowthControl)*100

[4] = system: MCF-7 (Breast); assay: Hollow Fiber in vivo anti-cancer assay; design: species or system mice
Description: as §1, §2, §3, §4, §5, §6

[5] = system: PC3 (Prostate); assay: Hollow Fiber in vivo anti-cancer assay; design: species or system mice; conditions: for % Growth Inhibition: 29.4 mg/kg i.p. once daily days 3-8
Description: as §1, §2, §3, §4, §5, §6

[6] = system: COLO205 (Colorectal); assay: Hollow Fiber in vivo anti-cancer assay; design: species or system mice
Description: as §1, §2, §3, §4, §5, §6

[7] = system: MDA-231 (Breast); assay: Hollow Fiber in vivo anti-cancer assay; design: species or system mice
Description: as §1, §2, §3, §4, §5, §6

CN(C)CCN1C(=O)c2cccc3cc(N)cc(c23)C1=O.O=C(O)C[C@H](O)C(=O)O [Amonafide Malate]
premature sacrifice for body weight loss of greater than 20% or other signs of toxicity [1]: not necessary to sacrifice any animals | Solvent ([2]; minimum water/ethanol (1.5/4 v/v) to dissolve crude product at boil, salt made by the method in column 2): 7.5 mL/g | recrystallization volume for purification, malate compared with HCl ([2]; water/ethanol 1.5/4 v/v): 5 times smaller | % Growth Inhibition ([3]; H23, I.P. fibers, 15 mg/kg i.p. twice-daily): 36% | % Growth Inhibition ([3]; H23, I.P. fibers, 29 mg/kg i.p. twice-daily): 47% | % Growth Inhibition ([3]; H23, S.C. fibers, 15 mg/kg i.p. twice-daily): 13% | % Growth Inhibition ([3]; H23, S.C. fibers, 29 mg/kg i.p. twice-daily): 27% | % Growth Inhibition ([4]; MCF-7, I.P. fibers, 15 mg/kg i.p. twice-daily): 97% | % Growth Inhibition ([4]; MCF-7, I.P. fibers, 29 mg/kg i.p. twice-daily): 124% | % Growth Inhibition ([4]; MCF-7, IP, 29.4 mg/kg i.p. once daily days 3-8): 150.2% | % Growth Inhibition ([4]; MCF-7, S.C. fibers, 15 mg/kg i.p. twice-daily): 83% | % Growth Inhibition ([4]; MCF-7, S.C. fibers, 29 mg/kg i.p. twice-daily): 107% | % Growth Inhibition ([4]; MCF-7, SC, 29.4 mg/kg i.p. once daily days 3-8): 116.1% | percent growth inhibition (text summary of Tables 6-8) ([4]; MCF-7, above 100% indicates lethality for cancerous cells): above 100% | % Growth Inhibition ([5]; PC3, IP): 71.6% | % Growth Inhibition ([5]; PC3, SC): 52.9% | percent growth inhibition (text summary of Tables 6-8) ([5]; PC-3 (prostate)): Significant percent growth inhibition | percent growth inhibition (text summary of Tables 6-8) ([6]; COLO205 (colorectal cancer)): Significant percent growth inhibition | % Growth Inhibition ([6]; COLO205, I.P. fibers, 15 mg/kg i.p. twice-daily): 82% | % Growth Inhibition ([6]; COLO205, I.P. fibers, 29 mg/kg i.p. twice-daily): 98% | % Growth Inhibition ([6]; COLO205, IP, 29.4 mg/kg i.p. once daily days 3-8): 84.6% | % Growth Inhibition ([6]; COLO205, S.C. fibers, 15 mg/kg i.p. twice-daily): 50% | % Growth Inhibition ([6]; COLO205, S.C. fibers, 29 mg/kg i.p. twice-daily): 76% | % Growth Inhibition ([6]; COLO205, SC, 29.4 mg/kg i.p. once daily days 3-8): 80.4% | % Growth Inhibition ([7]; MDA-231, I.P. fibers, 15 mg/kg i.p. twice-daily): 93% | % Growth Inhibition ([7]; MDA-231, I.P. fibers, 29 mg/kg i.p. twice-daily): 108% | % Growth Inhibition ([7]; MDA-231, S.C. fibers, 15 mg/kg i.p. twice-daily): 79% | % Growth Inhibition ([7]; MDA-231, S.C. fibers, 29 mg/kg i.p. twice-daily): 113% | percent growth inhibition (text summary of Tables 6-8) ([7]; MDA-231, above 100% indicates lethality for cancerous cells): above 100%
